Measured values taken from patent US7973219B2, “Method for producing transgenic plants resistant to weed control compounds which disrupt the porphyrin pathways of plants” (Sumitomo Chemical Company, Limited, priority 1998, dated 2011).

Columns and labels:
[1] = tested on: E. coli BT3/pACYCSP+pRASSL4 strain; assay: Growth of E. coli BT3/pACYCSP+pRASSL4 with herbicidal compound; format: cell-based, Escherichia coli; settings: 1 ppm, 18 hours culture, Table 16
Text: According to the description of Gibson, L. C. D. et al., Proc. Natl. Acad. Sci. USA, 92; p 1941 (1995), the DNA fragment containing bchH gene prepared in Example 1 was digested with the restriction enzymes NdeI and BglII. The resultant DNA fragment was inserted between NdeI restriction site and BamHI restriction site of expression vector pET11a (manufactured by Stratagene) to obtain plasmid pETBCH (FIG. 1). This plasmid pETBCH was introduced into E. coli BL21(DE3) strain competent cells (manufactured by Stratagene) according to the manual attached to the competent cells to obtain E. coli BL21(DE3)/pETBCH strain. […] When the absorbance at 600 nm of the liquid culture medium became about 0.6, isopropyl β-D-thiogalactopyranoside (IPTG) was added to the liquid culture medium so that the final concentration was 0.4 mM, and the culture was continued for about additional 20 hours. […]
These E. coli strains were inoculated into YPT medium containing 1 ppm of the PPO inhibitory-type herbicidal compound represented by Structure 8, 100 μg/ml ampicillin, 15 μg/ml chloramphenicol, 10 μg/ml kanamycin, 10 μg/ml hemin and 50 μg/ml aminolevulinic acid, cultured under dark conditions or light conditions according to the same manner as in Example 2. Then, 18 hours after initiation of culture, the absorbance of the liquid culture medium was measured at 600 nm. […]

[2] = tested on: E. coli BT3/pACYCSP strain; assay: Growth of E. coli BT3/pACYCSP with herbicidal compound (absorbance at 600 nm); format: cell-based, Escherichia coli; settings: 18 hours culture, A600, medium without compound = 1, Table 1
Text: According to the description of Gibson, L. C. D. et al., Proc. Natl. Acad. Sci. USA, 92; p 1941 (1995), the DNA fragment containing bchH gene prepared in Example 1 was digested with the restriction enzymes NdeI and BglII. The resultant DNA fragment was inserted between NdeI restriction site and BamHI restriction site of expression vector pET11a (manufactured by Stratagene) to obtain plasmid pETBCH (FIG. 1). This plasmid pETBCH was introduced into E. coli BL21(DE3) strain competent cells (manufactured by Stratagene) according to the manual attached to the competent cells to obtain E. coli BL21(DE3)/pETBCH strain. The strain was inoculated into 1.5 ml LB liquid culture medium (1% tryptone, 0.5% yeast extract, 0.5% NaCl) containing 100 μg/ml ampicillin in a tube (14×10 mm), and the tube was covered with aluminum foil (hereinafter referred to as dark conditions), cultured with shaking at 37° C. under light of fluorescent lamp (about 8000 lux). When the absorbance at 600 nm of the liquid culture medium became about 0.6, isopropyl β-D-thiogalactopyranoside (IPTG) was added to the liquid culture medium so that the final concentration was 0.4 mM, and the culture was continued for about additional 20 hours. […] In contrast to this, when E. coli BL21(DE3)/pETBCH strain was cultured according to the same manner (with IPTG) except that the tube was not covered with aluminum foil (hereinafter referred to as light conditions), E. coli grew and turned red as above.
The plasmid pSPPO-P was digested with restriction enzyme PshBI, the resultant DNA fragment was blunted by using T4 DNA polymerase and further digested with SphI to isolate the DNA fragment containing chloroplast-type PPO gene of soybean and lac promoter. Then, the plasmid pACYC184 (manufactured by Nippon Gene) was digested with the restriction enzymes NruI and SphI to remove a fragment of 410 bp and the above DNA fragment was inserted instead to obtain plasmid pACYCSP (FIG. 2). […]
E. coli BT3/pACYCSP strain prepared in Example 3 was inoculated into YPT medium containing 10 or 1 ppm of PPO inhibitory type herbicidal compound represented by the above Structure 8, 10 μg/ml hemin, 50 μg/ml aminolevulinic acid, 15 μg/ml chloramphenicol and 10 μg/ml kanamycin, cultured under dark conditions or light conditions according to the same manner as in Example 2. […] Then, 18 hours after initiation of culture, the absorbance of the liquid culture medium was measured at 600 nm. By taking the absorbance of the medium without the herbicidal compound as 1, the relative value of the absorbance of the medium containing the herbicidal compound was calculated.

## C#CCOc1cc(N2C(=O)C3=C(CCCC3)C2=O)c(F)cc1Cl [Structure 8]
[1]; in the dark
  Relative absorbance: 0.98
[1]; in the light
  Relative absorbance: 1.1
[2]; in the dark, 1 ppm
  Relative absorbance: 0.95
[2]; in the dark, 10 ppm
  Relative absorbance: 0.73
[2]; in the light, 1 ppm
  Relative absorbance: 0.25
[2]; in the light, 10 ppm
  Relative absorbance: 0.10
